Assays:
[1] = system: isolated rat aorta; test: Vasodilating effect on blood vessel excised from rats (methoxamine-constricted aorta); conditions: isolated rat aorta constricted with methoxamine (3 μM); read-out: Concentration for inhibition of constriction induced by methoxamine in rat arota (IC50)
Excerpt: Rats (350˜450 g, obtained from the Experimental Animal Team of the Korea Research Institute of Chemical Technology) were knocked to be unconscious by hitting the occipital region, sacrificed by cervical dislocation, and underwent thoracotomy. After being quickly removed, the thoracic aorta was deprived of the adipose tissue and cut into aortic rings of 3 mm width. The aorta was lightly rubbed with cotton club soaked in a modified Krebs Henseleit buffer (Physiological salt solution) to remove the inner epithelial layer therefrom. While being hung in an organ bath containing a physiological buffer, the vascular smooth muscle was allowed to equilibrate under a resting tension of 2 g and then, stand for 1 hour at 37° C. for stabilization, supplying a carbogen consisting of 95% O2˜5% CO2.
Thereafter, the vascular smooth muscle was constricted with 10^−5M phenylephrine and washed several times with physiological saline solution. The said procedure was repeated again to ensure the stable reactivity of vascular smooth muscle to repetitive constriction/relaxation.
Thereafter, 3×10^−6 M methoxamine was applied to induce an intensive constriction in the vascular smooth muscle. When the vasoconstriction induced by the methoxamine was reached and maintained to a maximum, test compounds and control material was cumulatively added to the organ bath in concentration of 1, 3, 10 and 30 μM, respectively, to examine the vasodilating effect. Cromakalim, BMS-180448 (the compound of formula 4) and BMS-191095 (the compound of formula 5), known to be the first generation KATP opener with potent vasodilating effect were used as control materials.
The change rate of constriction by the addition of the drugs compared to the maximal constriction induced by methoxamine was calculated to plot a concentration-relaxation response curve. Through a least linear regression analysis, IC50 that the drug concentration at which the vascular tissue is relaxed to 50% extent of the maximal constriction, was obtained for each drug.

[2] = system: cortical neuron cells; test: Protective effect on iron-induced neuronal cell injury (LDH release); type: cell-based; conditions: FeSO4 50 μM; for protective effect on neuron cell: Inhibition (%, 30 μM compound addition): LDH reduction vs control; for IC50: LDH
Description: From the brains of 17˜18 day-old embryos, cortical neuron cells were isolated and then, cultured at 37° C. for 7˜9 days in a 5% CO2 incubator. The said cortical cell cultures were washed twice with MEM (Minimum essential medium) to reduce the serum level to 0.2%. […] Then, the compound of the said concentration was pre-treated for 30 min, respectively. For the experiment, test compound was dissolved in DMSO and diluted in a medium. At this time, the final concentration of DMSO was not allowed to exceed 0.1%. For control group, only vehicle was applied.
After the said pre-treatment, FeSO4 was added to the medium for a final concentration to be 50 μM. The medium was cultured in CO2 incubator for 24 hours. During the incubation, lactate dehydrogenase (LDH) was released by iron. The serum level of lactate dehydrogenase released into the medium was measured to assess necrosis of neuronal cell by the oxidative toxicity of iron. The protective effect on neuron cells of the test compounds was evaluated by calculating the LDH reduction rate of treatment-group compared with that of the control group.

[3] = system: isolated ischemic rat heart; test: Cardioprotective effect in ischemic heart models of rats (Langendorff); conditions: 10 μM
Description: Male rats (300˜450 g, obtained form the experimental animal team of the Korea Research Institute of Chemical Technology) were anaesthetized by the intra-peritoneal injection of sodium pentobarbital at a dose of 100 mg/kg. Heparin (1,000 U/kg) was injected to the tail vein and then the heart was enucleated. Particularly, cannula (PE 240) was inserted to the organ. Rats were mechanically ventilated with a rodent ventilator, in situ aorta cannula was inserted into their aorta. In retorograde perfusion, their hearts were enucleated, then just hung onto Langendorff Apparatus. Tissue attached at the heart was removed. Heart was perfused in oxygenated modified Krebs-Henseleit bicarbonate buffer (composition<mM/L>116 NaCl, 4.7 KCl, 1.1 MgSO4, 1.17 KH2PO4, 24.9 NaHCO3, 2.52 CaCl2, 8.32 Glucose, 2.0 Pyruvate) at a constant perfusion pressure (85 mmHg). A metal cannula attached to latex balloon filled with solvent (ethanol: water=1:1 (v/v)) was placed in the left ventricle through pulmonary vein and connected to a isovolumetric pressure transducer (H.S.E., Germany) for measurement of left ventricular pressure (LVP). The hearts were allowed to equilibrate for 15 min, at which time left ventricular end-diastolic pressure (EDP) was adjusted to 5 mmHg and this balloon volume was maintained throughout the experiment.
Baseline cardiac contractile function, heart rate (HR), and coronary flow (CF) were measured. Cardiac contractile function was calculated by […], yielding LVDP (left ventricular developed pressure). Double product RPP (rate-pressure product) (DP), another important parameter for indirectly assessing cardiac performance in Langendorff heart impossible to measure cardiac output was calculated by multiplying HR by LVDP.
Throughout the experiment, total coronary blood flow was measured by the use of coronary flow probe (diameter: 1.0 mm) installed in aortic cannula with electromagnetic flowmeter. Temperature of heart was steadily maintained by immersing the heart at 37° C. in physiological saline solution to which 95% O2/5% CO2 was constantly supplied. After stabilization for 15 min, the hearts were pre-treated for 10 min in vehicle (0.04% DMSO) or mixture containing the compound of the present invention or control material. Thereafter, cardiac contractile function, HR and CF were repeatedly measured. Global ischemia was induced by completely shutting off the perfusate for 30 min. Severity of ischemia was determined as the time to contracture (TTC, min) during global ischemia in which the first 5 mmHg increase in EDP was observed. Then, the hearts were reperfused and, 30 min later, contractile functions (LVDP, HR and CF) was repeatedly measured. After reperfusion was accomplished for 30 min, LDH (lactate dehydrogenase) was measured as a sensitive index for loss of cell viability with a kit.

[4] = Acute oral toxicity test in rats; conditions: SD, rat, in vivo, single oral dose, suspended in 0.5% methyl cellulose, read-out: lethal dose (LD50) for oral administration
Description: In this test, six-week old SPF SD rats were used with two rats assigned to each group. Each group was consisted of two rats. The compounds prepared in example 1, 7, 11, 17, 22, 24, 26, 28, 30, 32, 34, 42, 52, 54, 55, 56, 57, 59, 60, 61, 70, 75, 77, 79, 81, 83, 85, and 89 were suspended in 0.5% methyl cellulose, respectively. […] Also, hematological test and biochemical analysis were accomplished. After sacrificing the animals, autopsy was performed for macroscopic observations of the organs and tissues. As a result, there was no significant changes in clinical symptoms, body weight and mortalities. Also in hematology, serum chemistry parameters, macroscopic observation and drug-related changes were not observed.

| SMILES | IC50 [1] [µM] | protective effect on neuron cell: Inhibition (%, 30 μM compound addition) ([2]; 24 hours) [%] | IC50 ([2]; Cortical neurone, 24 h) [µM] | EDP (mmHg) ([3]; after 30 min global ischemia and reperfusion) | LDH (u/g) ([3]; reperfusion LDH release) | LVDP X HR (%) ([3]; reperfusion, % of pre-treatment DP) | TTC ([3]; time to contracture during global ischemia) [min] | LD50 [4] [mg/kg] | IC50 ([2]; 24 hours) [µM] |
| --- | --- | --- | --- | --- | --- | --- | --- | --- | --- |
| COC(OC)[C@@]1(C)Oc2ccc([N+](=O)[O-])cc2[C@@H](N(Cc2nnn(C)n2)c2ccc(Cl)cc2)[C@@H]1O [Example 1, (2S,3S,4R)-6-nitro-4-[N-(4-chlorophenyl)-N-(2-methyl-2H-tetrazol-5-ylmethyl)amino]-3-hydroxy-2-methyl-2-dimethoxymethyl-3,4-dihydro-2H-1-benzopyran] | 7.14 | 71 | 18.1 | 29.3 | 15.2 | 46.8 | 24.8 | > 2000 |  |
| COC(OC)[C@@]1(C)Oc2ccc([N+](=O)[O-])cc2[C@@H](N(Cc2ccccc2)Cc2nnn(C)n2)[C@@H]1O [Example 7, (2S,3S,4R)-6-nitro-4-[N-benzyl-N-(2-methyl-2H-tetrazol-5-ylmethyl)amino]-3-hydroxy-2-methyl-2-dimethoxymethyl-3,4-dihydro-2H-1-benzopyran] | 5.59 | 59 | 34.1 |  |  |  |  | > 2000 |  |
| COC(OC)[C@@]1(C)Oc2ccc(N)cc2[C@@H](N(Cc2nnn(C)n2)c2cccc(Cl)c2)[C@@H]1O [Example 22, (2S,3S,4R)-6-amino-4-[N-(3-chlorophenyl)-N-(2-methyl-2H-tetrazol-5-ylmethyl)amino]-3-hydroxy-2-methyl-2-dimethoxymethyl-3,4-dihydro-2H-1-benzopyran] | > 30 | 97 | 5.9 |  |  |  |  | > 2000 |  |
| COC(OC)[C@@]1(C)Oc2ccc(N)cc2[C@H](N(Cc2nnn(C)n2)c2cccc(Cl)c2)[C@H]1O [Example 26, (2S,3R,4S)-6-amino-4-[N-(3-chlorophenyl)-N-(2-methyl-2H-tetrazol-5-ylmethyl)amino]-3-hydroxy-2-methyl-2-dimethoxymethyl-3,4-dihydro-2H-1-benzopyran] | 24.6 | 97 | 2.2 |  |  |  |  | > 2000 |  |
| COC(OC)[C@@]1(C)Oc2ccc([N+](=O)[O-])cc2[C@H](N(Cc2nnn(C)n2)c2ccc(OC(F)(F)F)cc2)[C@H]1O [Example 31, (2S,3R,4S)-6-nitro-4-[N-(4-trifluoromethoxyphenyl)-N-(2-methyl-2H-tetrazol-5-ylmethyl)amino]-3-hydroxy-2-methyl-2-dimethoxymethyl-3,4-dihydro-2H-1-benzopyran] | > 30 | 86 | < 2 |  |  |  |  |  | 1.8 |
| COC(OC)[C@@]1(C)Oc2ccc(N)cc2[C@H](N(Cc2nnn(C)n2)c2ccc(C(F)(F)F)cc2)[C@H]1O [Example 34, (2S,3R,4S)-6-amino-4-[N-(4-trifluoromethylphenyl)-N-(2-methyl-2H-tetrazol-5-ylmethyl)amino]-3-hydroxy-2-methyl-2-dimethoxymethyl-3,4-dihydro-2H-1-benzopyran] | > 30 | 111 | 1.5 |  |  |  |  | > 2000 |  |
| COC(OC)[C@@]1(C)Oc2ccc(N)cc2[C@@H](N(Cc2nnn(C)n2)c2ccc(C(F)(F)F)cc2)[C@@H]1O [Example 75, (2S,3S,4R)-6-amino-4-[N-(4-trifluoromethylphenyl)-N-(2-methyl-2H-tetrazol-5-ylmethyl)amino]-3-hydroxy-2-methyl-2-dimethoxymethyl-3,4-dihydro-2H-1-benzopyran] | > 30 | 125 | < 2 |  |  |  |  | > 2000 | 1.8 |
| COC(OC)[C@]1(C)Oc2ccc(N)cc2[C@@H](N(Cc2nnn(C)n2)c2ccc(C(F)(F)F)cc2)[C@@H]1O [Example 77, (2R,3S,4R)-6-amino-4-[N-(4-trifluoromethylphenyl)-N-(2-methyl-2H-tetrazol-5-ylmethyl)amino]-3-hydroxy-2-methyl-2-dimethoxymethyl-3,4-dihydro-2H-1-benzopyran] | > 30 | 111 | < 2 |  |  |  |  | > 2000 | 1.9 |
| COC(OC)[C@]1(C)Oc2ccc(N)cc2[C@H](N(Cc2nnn(C)n2)c2ccc(OC(F)(F)F)cc2)[C@H]1O [Example 83, (2R,3R,4S)-6-amino-4-[N-(4-trifluoromethoxyphenyl)-N-(2-methyl-2H-tetrazol-5-ylmethyl)amino]-3-hydroxy-2-methyl-2-dimethoxymethyl-3,4-dihydro-2H-1-benzopyran] | > 30 | 80 | 3.7 |  |  |  |  | > 2000 |  |
| COC(OC)[C@]1(C)Oc2ccc(N)cc2[C@@H](N(Cc2nnn(C)n2)c2ccc(OC(F)(F)F)cc2)[C@@H]1O [Example 85, (2R,3S,4R)-6-amino-4-[N-(4-trifluoromethoxyphenyl)-N-(2-methyl-2H-tetrazol-5ylmethyl)amino]-3-hydroxy-2-methyl-2-dimethoxymethyl-3,4-dihydro-2H-1-benzopyran] | > 30 | 119 | < 2 |  |  |  |  | > 2000 | 1.8 |
| COC(OC)[C@@]1(C)Oc2ccc([N+](=O)[O-])c(C)c2[C@@H](N(Cc2nnn(C)n2)c2ccc(Cl)cc2)[C@@H]1O [Example 98, (2S,3S,4R)-6-nitro-5-methyl-4-[N-(4-chlorophenyl)-N-(2-methyl-2H-tetrazol-5-ylmethyl)amino]-3-hydroxy-2-methyl-2-dimethoxymethyl-3,4-dihydro-2H-1-benzopyran] | 7.34 | 85 | 10.5 |  |  |  |  |  |  |
